The record followed here is patent US20200399264A1, “4-SUBSTITUTED-2-THIAZOLE AMIDES AS ANTIVIRAL AGENTS” (Southern Research Institute, priority 2019, published 2020).

One series concerns CHIKV. As to the kind of experiment: antiviral activity against CHIKV (VTR and EC90). It counts as cell-based. To be noted: Chikungunya virus. An excerpt: As used herein, “EC90,” is intended to refer to the concentration of a substance (e.g., a compound or a drug) that is required for 90% agonism of a biological process, or component of a process, including a protein, subunit, organelle, ribonucleoprotein, etc. In one aspect, an EC90 can refer to the concentration of a substance that is required for 90% agonism in vivo, as further defined elsewhere herein. In a further aspect, […].

Series [1] in a line: cell cytotoxicity in a cell viability assay (CC50). It counts as cell-based. Conditions: concentration required for 50% cell survival. From the text:
As used herein, “CC50,” is intended to refer to the cell cytotoxicity to the concentration of a substance (e.g., a compound or a drug) that is required for 50% cell survival in a cell viability assay in vitro.

Turning to `CSc1ncccc1C(=O)Nc1nc(-c2cccc(Nc3ccc(CN)cc3)c2)cs1` [Compound 45, N-(4-(3-((4-(aminomethyl)phenyl)amino)phenyl)thiazol-2-yl)-2-(methylthio)nicotinamide], in the series with CHIKV, the concentration for an effect of 90% (EC90) is 5.8 µM. In the series on CHIKV (read-out: VTR @ 10 μM (logs)), the log reduction at 10 µM was 1.23. Further, it took 12.8 µM to reach half-maximal cytotoxicity in series [1] (CC50).

One may read the EC90 as the point of the concentration-response curve where the effect stands at 90%. Higher therefore signals weaker potency. The CC50 is the concentration giving 50% cytotoxicity. Lower therefore signals greater toxicity to the cells.
